The text below walks through data of patent publication US4371537A, “Sulfur-substituted phenoxypyridines having antiviral activity” (The Dow Chemical Company, priority 1981, dated 1983).

Values after ≈ are worked out from the molar mass of the structure shown.

Broadly, the inhibition is the change of the read-out against control, counted positive when it falls.

Data set [1] relates to rhinovirus type 64 (RV-64). Briefly: Tissue culture testing, rhinovirus type 64 in HeLa cells. Type of data set: cell-based. The conditions noted are these: Enterovirus, 48 and 72 hours, NA = not active at the standard test conditions, read-out: RV-64: lowest concentration of the compound necessary to cause a 50 percent reduction in cytopathic effect. In outline: (§1)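 Compound-containing Eagle's medium plus fetal calf serum was applied to monolayered HeLa cells before virus challenge, with untreated and virus-free controls. Activity expressed as minimum effective compound concentration in μg/ml.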

Another data set has as its system Rhinovirus Type 17. The data set can be described thus: Inhibition of cytopathic effect in WI-38 cell culture tubes, rhinovirus type 17. Type of data set: cell-based. The conditions noted are these: Enterovirus, WI-38 cells, read-out: Inhibition grade, Rhinovirus Type 17; for inhibition at 25 µg/mL: 25 μg/ml. The protocol:
(§2) The test compound was dissolved in an appropriate solvent (generally dimethyl sulfoxide) and incubated at 56° C. for at least 15 minutes and this solution was then used to prepare various test solutions having the desired concentration of test compound in preheated WI maintenance medium (49% Eagles, 49% medium 199, 2% fetal calf serum and antibiotics).
(§3) Triplicate cell culture tubes (WI-38 human embryonic lung cell culture tubes) were fed with 1 ml of medium containing the compound at specified concentrations and inoculated with 3-300 TCID50 (3-300 times the tissue culture infective dose 50, i.e., the dose required to infect 50% of the cell cultures tested). Simultaneous viral titrations were performed. The tissue cultures were supplemented with fresh medium when necessary (around 3-4 days) until viral titrations were completed.
(§4) The cell culture tubes were examined dialy for cytopathic effect. […] Comparisons were made at that time with the percentage of cell sheet destruction in tubes containing virus compound mixtures. Observed differences of 75% or more were graded "+", 74-50% as "±", and less than 50% as "-" inhibition.

Another data set deals with Rhinovirus Type 10. Briefly: Inhibition of cytopathic effect in WI-38 cell culture tubes, rhinovirus type 10. Type of data set: cell-based. The conditions noted are these: Enterovirus, WI-38 cells, read-out: Inhibition grade, Rhinovirus Type 10; for inhibition at 25 µg/mL: 25 μg/ml. As for the experimental part:
as §2, §3, §4
For orientation: Damage to the host cells serves as the signal in cytopathic effect assays.

In the next data set the test system is Rhinovirus Type 39. Briefly: Inhibition of cytopathic effect in WI-38 cell culture tubes, rhinovirus type 39. The conditions noted are these: Enterovirus, WI-38 cells, read-out: Inhibition grade, Rhinovirus Type 39; for inhibition at 25 µg/mL: 25 μg/ml. Type of data set: cell-based. The protocol: as §2, §3, §4
A further data set concerns Rhinovirus Type 29. The data set can be described thus: Inhibition of cytopathic effect in WI-38 cell culture tubes, rhinovirus type 29. Type of data set: cell-based. The conditions noted are these: Enterovirus, WI-38 cells, read-out: Inhibition grade, Rhinovirus Type 29; for inhibition at 25 µg/mL: 25 μg/ml. As for the experimental part:
as §2, §3, §4

Another data set relates to rhinovirus type 2 (RV-2). The data set can be described thus: Tissue culture testing, rhinovirus type 2 in HeLa cells. Type of data set: cell-based. The conditions noted are these: Enterovirus, 48 and 72 hours, NA = not active at the standard test conditions, read-out: RV-2: lowest concentration of the compound necessary to cause a 50 percent reduction in cytopathic effect. In outline: as §1

The test system of another data set is Rhinovirus Type 21. The data set can be described thus: Inhibition of cytopathic effect in WI-38 cell culture tubes, rhinovirus type 21. Type of data set: cell-based. The conditions noted are these: Enterovirus, WI-38 cells, read-out: Inhibition grade, Rhinovirus Type 21; for inhibition at 25 µg/mL: 25 μg/ml. The protocol:
as §2, §3, §4

The nature of data set [2]: Cytotoxicity in tissue culture testing (HeLa monolayers). The conditions noted are these: human; HeLa cells; observed at 48 and 72 hours post-treatment; read-out: Cytotoxicity: concentration of the compound found to be toxic to the cell. The format is cell-based. In outline:
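HeLa monolayers treated with compound in Eagle's medium with fetal calf serum, then challenged with rhinovirus (RV-1A, RV-2, some RV-5, RV-8, RV-64) or Coxsackie A21. Untreated and virus-free cell controls included.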

Another data set has as its system Rhinovirus Type 75. Briefly: Inhibition of cytopathic effect in WI-38 cell culture tubes, rhinovirus type 75. The conditions noted are these: Enterovirus, WI-38 cells, read-out: Inhibition grade, Rhinovirus Type 75; for inhibition at 25 µg/mL: 25 μg/ml. The format is cell-based. As for the experimental part:
as §2, §3, §4

A further data set concerns Rhinovirus Type 6. The data set can be described thus: Inhibition of cytopathic effect in WI-38 cell culture tubes, rhinovirus type 6. Type of data set: cell-based. The conditions noted are these: Enterovirus, WI-38 cells, read-out: Inhibition grade, Rhinovirus Type 6; for inhibition at 25 µg/mL: 25 μg/ml. The protocol:
as §2, §3, §4

Another data set relates to Rhinovirus Type 56. The data set can be described thus: Inhibition of cytopathic effect in WI-38 cell culture tubes, rhinovirus type 56. Type of data set: cell-based. The conditions noted are these: Enterovirus, WI-38 cells, read-out: Inhibition grade, Rhinovirus Type 56; for inhibition at 25 µg/mL: 25 μg/ml. The protocol: as §2, §3, §4
The next data set has as its system Rhinovirus Type 4. Briefly: Inhibition of cytopathic effect in WI-38 cell culture tubes, rhinovirus type 4. Type of data set: cell-based. The conditions noted are these: Enterovirus, WI-38 cells, read-out: Inhibition grade, Rhinovirus Type 4; for inhibition at 25 µg/mL: 25 μg/ml. As for the experimental part: as §2, §3, §4
The next data set deals with Rhinovirus Type 68. Briefly: Inhibition of cytopathic effect in WI-38 cell culture tubes, rhinovirus type 68. The format is cell-based. The conditions noted are these: Enterovirus, WI-38 cells, read-out: Inhibition grade, Rhinovirus Type 68; for inhibition at 25 µg/mL: 25 μg/ml. The protocol:
as §2, §3, §4

The test system of the next data set is Rhinovirus Type 58. Briefly: Inhibition of cytopathic effect in WI-38 cell culture tubes, rhinovirus type 58. The conditions noted are these: Enterovirus, WI-38 cells, read-out: Inhibition grade, Rhinovirus Type 58; for inhibition at 25 µg/mL: 25 μg/ml. The format is cell-based. As for the experimental part: as §2, §3, §4
The test system of the next data set is Rhinovirus Type 60. Briefly: Inhibition of cytopathic effect in WI-38 cell culture tubes, rhinovirus type 60. The format is cell-based. The conditions noted are these: Enterovirus, WI-38 cells, read-out: Inhibition grade, Rhinovirus Type 60; for inhibition at 25 µg/mL: 25 μg/ml. As for the experimental part: as §2, §3, §4
In the next data set the test system is Rhinovirus Type 59. Briefly: Inhibition of cytopathic effect in WI-38 cell culture tubes, rhinovirus type 59. The conditions noted are these: Enterovirus, WI-38 cells, read-out: Inhibition grade, Rhinovirus Type 59; for inhibition at 25 µg/mL: 25 μg/ml. The format is cell-based. The protocol:
as §2, §3, §4

The test system of another data set is Rhinovirus Type 74. Briefly: Inhibition of cytopathic effect in WI-38 cell culture tubes, rhinovirus type 74. Type of data set: cell-based. The conditions noted are these: Enterovirus, WI-38 cells, read-out: Inhibition grade, Rhinovirus Type 74; for inhibition at 25 µg/mL: 25 μg/ml. The protocol:
as §2, §3, §4

The subject of another data set is Rhinovirus Type 64. The data set can be described thus: Inhibition of cytopathic effect in WI-38 cell culture tubes, rhinovirus type 64. The format is cell-based. The conditions noted are these: Enterovirus, WI-38 cells, read-out: Inhibition grade, Rhinovirus Type 64; for inhibition at 25 µg/mL: 25 μg/ml. The protocol:
as §2, §3, §4

The test system of another data set is Cox A21. Briefly: Single Oral Dose test in mice challenged IP with Cox A21. The format is in vivo, Swiss male mice. The conditions noted are these: 600 mg/kg P.O. 3 h after IP challenge; >3.84 significant (95% confidence level). The gist of the method:
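Swiss male mice (8-12 g) infected IP with a lethal Cox A21 dose (80-100% mortality within 10 days), then given a single oral dose of compound in 0.5% Methocel 3 h later. Deaths recorded daily for 7-10 days; modified Mantel-Haenzel chi-square versus virus controls, >3.84 significant.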

The next data set concerns Hanks Untyped. Briefly: Inhibition of cytopathic effect in WI-38 cell culture tubes, Hanks Untyped. The format is cell-based, rhinovirus. The conditions noted are these: Enterovirus, WI-38 cells, read-out: Inhibition grade, Hanks Untyped; for inhibition at 25 µg/mL: 25 μg/ml. As for the experimental part:
as §2, §3, §4

As to `CS(=O)(=O)c1ccc(Oc2ccc(C(=O)c3ccccc3)cc2)nc1` [Example 31, (4-((5-(methylsulfonyl)-2-pyridinyl)oxy)phenyl)phenylmethanone], the figures for the EC50 (in data set [1]; with rhinovirus type 2 (RV-2)) were 2.5 µg/mL (≈ 7.07 µM) and 5 µg/mL (≈ 14.1 µM), respectively. The inhibition at 25 µg/mL with Rhinovirus Type 17 was ≥ 75%; in the data set with Rhinovirus Type 10, ≥ 75%; in the data set on Rhinovirus Type 39, < 50%; in the data set with Rhinovirus Type 29, ≥ 75%; in the data set on Rhinovirus Type 21, 50 to 74%; in the data set with Rhinovirus Type 75 it was < 50%. Besides, the inhibition at 25 µg/mL was 50 to 74% in the data set on Rhinovirus Type 6; ≥ 75% in the data set on Rhinovirus Type 56; ≥ 75% in the data set with Rhinovirus Type 4; ≥ 75% in the data set with Rhinovirus Type 68; ≥ 75% with Rhinovirus Type 58; ≥ 75% with Rhinovirus Type 60. The inhibition at 25 µg/mL in the data set with Rhinovirus Type 59 is ≥ 75%; in the data set on Rhinovirus Type 74 it was ≥ 75%; in the data set on Rhinovirus Type 64, 50 to 74%; in the data set with Hanks Untyped it was ≥ 75%. Besides, the MCC in [2] was > 100 µg/mL. The “Single Oral Dose X^2 (chi-square, deaths vs virus control)” value in the data set with Cox A21 was 19.383.

For `CCS(=O)(=O)c1ccc(Oc2ccc(Cl)cc2)nc1` [Example 42, 2-(4-chlorophenoxy)-5-(ethylsulfonyl)pyridine], the EC50 was ≤ 3.12 µg/mL in data set [1] and 3.12 µg/mL (≈ 10.5 µM) with rhinovirus type 2 (RV-2). In addition, the inhibition at 12.5 µg/mL is ≥ 75% with Rhinovirus Type 17 (12.5 μg/ml); 50 to 74% with Rhinovirus Type 10 (12.5 μg/ml); < 50% in the data set on Rhinovirus Type 39 (12.5 μg/ml); ≥ 75% in the data set with Rhinovirus Type 29 (12.5 μg/ml); 50 to 74% with Rhinovirus Type 21 (12.5 μg/ml); 50 to 74% in the data set on Rhinovirus Type 75 (12.5 μg/ml). Besides, the inhibition at 12.5 µg/mL in the data set with Rhinovirus Type 6 (12.5 μg/ml) was ≥ 75%; in the data set on Rhinovirus Type 56 (12.5 μg/ml), 50 to 74%; in the data set on Rhinovirus Type 4 (12.5 μg/ml), ≥ 75%; in the data set on Rhinovirus Type 68 (12.5 μg/ml), ≥ 75%; in the data set on Rhinovirus Type 58 (12.5 μg/ml), ≥ 75%; with Rhinovirus Type 60 (12.5 μg/ml) it was ≥ 75%. The inhibition at 12.5 µg/mL in the data set on Rhinovirus Type 59 (12.5 μg/ml), in the data set with Rhinovirus Type 74 (12.5 μg/ml), in the data set with Rhinovirus Type 64 (12.5 μg/ml) and with Hanks Untyped (12.5 μg/ml) was ≥ 75% each time. In [2], the MCC was ≥ 50 µg/mL. Also, the “Single Oral Dose X^2 (chi-square, deaths vs virus control)” value with Cox A21 was 46.453.

As for `CCS(=O)(=O)c1ccc(Oc2ccc(C(=O)c3ccccc3)cc2)nc1` [Example 43, (4-((5-(ethylsulfonyl)-2-pyridinyl)oxy)phenyl)phenylmethanone], the EC50 (in data set [1]; in the data set with rhinovirus type 2 (RV-2)) was 6.25 µg/mL (≈ 17 µM) in each case. Further, the inhibition at 3 µg/mL is ≥ 75% with Rhinovirus Type 17 (3.0 μg/ml); < 50% in the data set with Rhinovirus Type 10 (3.0 μg/ml); < 50% in the data set on Rhinovirus Type 39 (3.0 μg/ml); ≥ 75% in the data set with Rhinovirus Type 29 (3.0 μg/ml); < 50% with Rhinovirus Type 21 (3.0 μg/ml); < 50% with Rhinovirus Type 75 (3.0 μg/ml). The inhibition at 3 µg/mL in the data set with Rhinovirus Type 6 (3.0 μg/ml) is < 50%; in the data set with Rhinovirus Type 56 (3.0 μg/ml) it was < 50%; in the data set on Rhinovirus Type 4 (3.0 μg/ml), < 50%; with Rhinovirus Type 68 (3.0 μg/ml), 50 to 74%; in the data set on Rhinovirus Type 58 (3.0 μg/ml), < 50%; with Rhinovirus Type 60 (3.0 μg/ml), 50 to 74%. Besides, the inhibition at 3 µg/mL in the data set on Rhinovirus Type 59 (3.0 μg/ml) was < 50%; in the data set with Rhinovirus Type 74 (3.0 μg/ml), 50 to 74%; with Rhinovirus Type 64 (3.0 μg/ml), < 50%; in the data set with Hanks Untyped (3.0 μg/ml), 50 to 74%. Moreover, the MCC in data set [2] worked out at 25 µg/mL. Moreover, the “Single Oral Dose X^2 (chi-square, deaths vs virus control)” value with Cox A21 turned out to be 45.207.

Regarding `CCS(=O)(=O)c1ccc(Oc2ccc(Cl)c(Cl)c2)nc1` [Example 47, 2-(3,4-dichlorophenoxy)-5-(ethylsulfonyl)pyridine], the values for the EC50 (in data set [1]; in the data set with rhinovirus type 2 (RV-2)) were ≤ 0.312 µg/mL and 0.625 µg/mL (≈ 1.88 µM), respectively. In addition, the inhibition at 25 µg/mL was ≥ 75% in the data set with Rhinovirus Type 17; ≥ 75% with Rhinovirus Type 10; 50 to 74% in the data set with Rhinovirus Type 39; ≥ 75% with Rhinovirus Type 29; ≥ 75% in the data set on Rhinovirus Type 21; < 50% with Rhinovirus Type 75. Further, the inhibition at 25 µg/mL in the data set on Rhinovirus Type 6 was 50 to 74%; in the data set with Rhinovirus Type 56, ≥ 75%; in the data set on Rhinovirus Type 4, ≥ 75%; with Rhinovirus Type 68, ≥ 75%; in the data set with Rhinovirus Type 58, ≥ 75%; in the data set with Rhinovirus Type 60 it was ≥ 75%. Also, the inhibition at 25 µg/mL in the data set with Rhinovirus Type 59 is 50 to 74%; with Rhinovirus Type 74 it was ≥ 75%; with Rhinovirus Type 64 it was ≥ 75%; in the data set on Hanks Untyped, ≥ 75%. The MCC in [2] is > 50 µg/mL. The “Single Oral Dose X^2 (chi-square, deaths vs virus control)” value in the data set with Cox A21 worked out at 25.587.
